Measured values reported in US9346815B2, “5-chloro-2-difluoromethoxyphenyl pyrazolopyrimidine compounds, compositions and methods of use thereof” (Genentech, Inc., priority 2014, dated 2016).

Legend:
[1] = target: isolated recombinant JAK1 kinase domain (Homo sapiens (Human), UniProt P23458); assay: JAK1 enzyme assay (Caliper LabChip, peptide phosphorylation); assay type: biochemical; details: isolated recombinant JAK1 kinase domain, 25 μM ATP
[2] = target: isolated recombinant JAK2 kinase domain (Homo sapiens (Human), UniProt O60674); assay: JAK2 enzyme assay (Caliper LabChip, peptide phosphorylation); assay type: biochemical; details: 25 μM ATP
[3] = tested on: JAK1-dependent STAT6 phosphorylation downstream of IL-13 stimulation in TF-1 human erythroleukemia cells; assay: JAK1 pathway assay in TF-1 cells (IL-13-pSTAT6, MSD); assay type: cell-based; details: Homo sapiens, TF-1, TF-1 cells, read-out: IL13-pSTAT6 EC50_TF-1
Experimental: JAK1 Pathway Assay in Cell Lines was Carried Out as Follows:
Inhibitor potency (EC50) was determined in cell-based assays designed to measure JAK1 dependent STAT phosphorylation.
In one assay approach, TF-1 human erythroleukemia cells obtained from the American Type Culture Collection (ATCC; Manassas, Va.) were used to measure JAK1-dependent STAT6 phosphorylation downstream of IL-13 stimulation. Prior to use in the assays, TF-1 cells were starved of GM-CSF overnight in OptiMEM medium (Life Technologies, Grand Island, N.Y.) supplemented with 0.5% charcoal/dextran stripped fetal bovine serum (FBS), 0.1 mM non-essential amino acids (NEAA), and 1 mM sodium pyruvate. The assays were run in 384-well plates in serum-free OptiMEM medium using 300,000 cells per well. In a second assay approach, BEAS-2B human bronchial epithelial cells obtained from ATCC were plated at 100,000 cells per well of a 96-well plate one day prior to the experiment. The BEAS-2B assay was run in complete growth medium (bronchial epithelial basal medium plus bulletkit; Lonza; Basel, Switzerland).
Test compounds were serially diluted 1:2 in DMSO and then diluted 1:50 in medium just before use. Diluted compounds were added to the cells, for a final DMSO concentration of 0.2%, and incubated for 30 min (for the TF-1 assay) or 1 hr (for the BEAS-2B assay) at 37° C. Then, cells were stimulated with human recombinant cytokine at their respective EC90 concentrations, as previously determined for each individual lot. Cells were stimulated with IL-13 (R&D Systems, Minneapolis, Minn.) for 15 min at 37° C. The TF-1 cell reactions were stopped by the direct addition of 10× lysis buffer (Cell Signaling Technologies, Danvers, Mass.), whereas the BEAS-2B cell incubations were halted by the removal of medium and addition of 1× lysis buffer. The resultant samples were frozen in the plates at −80° C. Compound mediated inhibition of STAT6 phosphorylation was measured in the cell lysates using MesoScale Discovery (MSD) technology (Gaithersburg, Md.).

Chain of isolated recombinant JAK2 kinase domain (O60674 849-1124): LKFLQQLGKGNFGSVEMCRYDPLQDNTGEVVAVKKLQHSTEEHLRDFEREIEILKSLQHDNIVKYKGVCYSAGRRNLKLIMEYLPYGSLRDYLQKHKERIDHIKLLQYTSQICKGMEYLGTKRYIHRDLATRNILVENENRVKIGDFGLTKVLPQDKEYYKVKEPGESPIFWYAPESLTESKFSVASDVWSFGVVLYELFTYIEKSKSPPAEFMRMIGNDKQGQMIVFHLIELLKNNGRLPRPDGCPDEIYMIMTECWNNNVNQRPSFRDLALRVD
Chain of isolated recombinant JAK1 kinase domain (P23458 875-1153): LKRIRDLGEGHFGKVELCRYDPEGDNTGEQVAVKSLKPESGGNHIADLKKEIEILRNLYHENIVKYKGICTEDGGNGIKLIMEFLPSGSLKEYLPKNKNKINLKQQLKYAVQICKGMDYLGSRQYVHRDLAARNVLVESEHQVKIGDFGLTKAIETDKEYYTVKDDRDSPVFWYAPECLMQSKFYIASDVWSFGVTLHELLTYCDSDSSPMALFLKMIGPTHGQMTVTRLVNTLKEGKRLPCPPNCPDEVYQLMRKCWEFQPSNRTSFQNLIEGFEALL

| Compound | Ki [1] [nM] | Ki [2] [nM] | EC50 [3] [nM] |
| --- | --- | --- | --- |
| CN(Cc1ccccc1)C1CCN(c2nc(-c3cc(Cl)ccc3OC(F)F)c(NC(=O)c3cnn4cccnc34)s2)CC1 [Example 201, N-[2-[4-[benzyl(methyl)amino]-1-piperidyl]-4-[5-chloro-2-(difluoromethoxy)phenyl]thiazol-5-yl]pyrazolo[1,5-a]pyrimidine-3-carboxamide] | 5.05 | 3.76 | 184 |
| COCCCN1C[C@@H]2CN(C(=O)Cn3cc(NC(=O)c4cnn5cccnc45)c(-c4cc(Cl)ccc4OC(F)F)n3)C[C@@H]2C1 [Example 38, N-[1-[2-[(3aR,6aS)-2-(3-methoxypropyl)-1,3,3a,4,6,6a-hexahydropyrrolo[3,4-c]pyrrol-5-yl]-2-oxo-ethyl]-3-[5-chloro-2-(difluoromethoxy)phenyl]pyrazol-4-yl]pyrazolo[1,5-a]pyrimidine-3-carboxamide] | 0.88 | 0.78 | 8.5 |
| CN1C[C@@H]2CN(C(=O)Cn3cc(NC(=O)c4cnn5cccnc45)c(-c4cc(Cl)ccc4OC(F)F)n3)C[C@]2(c2ccccc2)C1 [Example 16, N-[1-[2-[(3aR,6aR)-2-methyl-3a-phenyl-3,4,6,6a-tetrahydro-1H-pyrrolo[3,4-c]pyrrol-5-yl]-2-oxo-ethyl]-3-[5-chloro-2-(difluoromethoxy)phenyl]pyrazol-4-yl]pyrazolo[1,5-a]pyrimidine-3-carboxamide] | 0.62 | 0.56 | 8.1 |
| CN(C)C[C@H]1CCCN1C(=O)Cn1cc(NC(=O)c2c(N)nn3cccnc23)c(-c2cc(Cl)ccc2OC(F)F)n1 [Example 78, 2-amino-N-[3-[5-chloro-2-(difluoromethoxy)phenyl]-1-[2-[(2R)-2-[(dimethylamino)methyl]pyrrolidin-1-yl]-2-oxo-ethyl]pyrazol-4-yl]pyrazolo[1,5-a]pyrimidine-3-carboxamide] | 2.08 | 1.38 | 52.4 |
| CN(Cc1ccc(Br)cc1)C1CCN(C(=O)Cn2cc(NC(=O)c3cnn4cccnc34)c(-c3cc(Cl)ccc3OC(F)F)n2)CC1 [Example 119, N-[1-[2-[4-[(4-bromophenyl)methyl-methyl-amino]-1-piperidyl]-2-oxo-ethyl]-3-[5-chloro-2-(difluoromethoxy)phenyl]pyrazol-4-yl]pyrazolo[1,5-a]pyrimidine-3-carboxamide] | 1.21 | 0.51 | 20.8 |
| CN1CCC2CN(C(=O)Cn3cc(NC(=O)c4c(N)nn5cccnc45)c(-c4cc(Cl)ccc4OC(F)F)n3)CCC21 (stereo not drawn) [Example 56, 2-amino-N-[3-[5-chloro-2-(difluoromethoxy)phenyl]-1-[2-(1-methyl-3,3a,4,6,7,7a-hexahydro-2H-pyrrolo[3,2-c]pyridin-5-yl)-2-oxo-ethyl]pyrazol-4-yl]pyrazolo[1,5-a]pyrimidine-3-carboxamide] | 0.74 | – | 6.9 |
| O=C(Nc1cn(CC(=O)N2CCC[C@H]2CO)nc1-c1cc(Cl)ccc1OC(F)F)c1cnn2cccnc12 [Example 268, N-[3-[5-chloro-2-(difluoromethoxy)phenyl]-1-[2-[(2S)-2-(hydroxymethyl)pyrrolidin-1-yl]-2-oxo-ethyl]pyrazol-4-yl]pyrazolo[1,5-a]pyrimidine-3-carboxamide] | 0.49 | – | 5.5 |
| CN1CC2(CCN(C(=O)Cn3cc(NC(=O)c4cnn5cccnc45)c(-c4cc(Cl)ccc4OC(F)F)n3)C2)C1 [Example 221, N-[3-[5-chloro-2-(difluoromethoxy)phenyl]-1-[2-(2-methyl-2,6-diazaspiro[3.4]octan-6-yl)-2-oxo-ethyl]pyrazol-4-yl]pyrazolo[1,5-a]pyrimidine-3-carboxamide] | 0.92 | – | 130 |
| O=C(Nc1sc(CN2CCCCC2)nc1-c1cc(Cl)ccc1OC(F)F)c1cnn2cccnc12 [Example 263, N-[4-[5-chloro-2-(difluoromethoxy)phenyl]-2-(1-piperidylmethyl)thiazol-5-yl]pyrazolo[1,5-a]pyrimidine-3-carboxamide] | 1.5 | – | 19.2 |
| NC[C@@H]1CCCN1C(=O)Cn1cc(NC(=O)c2cnn3cccnc23)c(-c2cc(Cl)ccc2OC(F)F)n1 [Example 81, N-[1-[2-[(2S)-2-(aminomethyl)pyrrolidin-1-yl]-2-oxo-ethyl]-3-[5-chloro-2-(difluoromethoxy)phenyl]pyrazol-4-yl]pyrazolo[1,5-a]pyrimidine-3-carboxamide] | 5.35 | – | 253 |
| CN1CC2(CCN(C(=O)Cn3cc(NC(=O)c4cnn5cccnc45)c(-c4cc(Cl)ccc4OC(F)F)n3)CC2)C1 [Example 218, N-[3-[5-chloro-2-(difluoromethoxy)phenyl]-1-[2-(2-methyl-2,7-diazaspiro[3.5]nonan-7-yl)-2-oxo-ethyl]pyrazol-4-yl]pyrazolo[1,5-a]pyrimidine-3-carboxamide] | 1.01 | – | 75.6 |
| O=C(Nc1cn(CC(=O)N2CCC3(CNC3)C2)nc1-c1cc(Cl)ccc1OC(F)F)c1cnn2cccnc12 [Example 219, N-[3-[5-chloro-2-(difluoromethoxy)phenyl]-1-[2-(2,6-diazaspiro[3.4]octan-6-yl)-2-oxo-ethyl]pyrazol-4-yl]pyrazolo[1,5-a]pyrimidine-3-carboxamide] | – | 1.28 | 1030 |
| N#CC1(c2ccccc2)CCN(C(=O)Cn2cc(NC(=O)c3cnn4cccnc34)c(-c3cc(Cl)ccc3OC(F)F)n2)CC1 [Example 281, N-[3-[5-chloro-2-(difluoromethoxy)phenyl]-1-[2-(4-cyano-4-phenyl-1-piperidyl)-2-oxo-ethyl]pyrazol-4-yl]pyrazolo[1,5-a]pyrimidine-3-carboxamide] | – | 0.45 | 2.2 |
| Nc1nn2cccnc2c1C(=O)Nc1cn(CC(=O)N2C[C@H]3CN(CC4CC4)C[C@H]3C2)nc1-c1cc(Cl)ccc1OC(F)F [Example 57, N-[1-[2-[(3aS,6aR)-2-(cyclopropylmethyl)-1,3,3a,4,6,6a-hexahydropyrrolo[3,4-c]pyrrol-5-yl]-2-oxo-ethyl]-3-[5-chloro-2-(difluoromethoxy)phenyl]pyrazol-4-yl]-2-amino-pyrazolo[1,5-a]pyrimidine-3-carboxamide] | – | 0.13 | 15 |
| Nc1nn2cccnc2c1C(=O)Nc1cn(C2CCN(CCCC(=O)N3CCOCC3)CC2)nc1-c1cc(Cl)ccc1OC(F)F [Example 147, 2-amino-N-[3-[5-chloro-2-(difluoromethoxy)phenyl]-1-[1-(4-morpholino-4-oxo-butyl)-4-piperidyl]pyrazol-4-yl]pyrazolo[1,5-a]pyrimidine-3-carboxamide] | 0.55 | – | 11.8 |
| CN(C)C(=O)N1CCC(CN2C[C@@H]3CN(C(=O)Cn4cc(NC(=O)c5cnn6cccnc56)c(-c5cc(Cl)ccc5OC(F)F)n4)C[C@@H]3C2)CC1 [Example 36, N-[1-[2-[(3aR,6aS)-2-[[1-(dimethylcarbamoyl)-4-piperidyl]methyl]-1,3,3a,4,6,6a-hexahydropyrrolo[3,4-c]pyrrol-5-yl]-2-oxo-ethyl]-3-[5-chloro-2-(difluoromethoxy)phenyl]pyrazol-4-yl]pyrazolo[1,5-a]pyrimidine-3-carboxamide] | – | 0.62 | 57.6 |
| Nc1nn2cccnc2c1C(=O)Nc1cn(C2CCCNCC2)nc1-c1cc(Cl)ccc1OC(F)F (stereo not drawn) [Example 171, 2-amino-N-[1-(azepan-4-yl)-3-[5-chloro-2-(difluoromethoxy)phenyl]pyrazol-4-yl]pyrazolo[1,5-a]pyrimidine-3-carboxamide] | – | 0.17 | 21.9 |
